Measured values from ChEMBL document CHEMBL1134479 (J Med Chem, 2001).

Tests used:
[1] = target: T1, Estrogen receptor (Homo sapiens, UniProt P03372); test: In vitro inhibition of [3H]17-beta-estradiol binding to human estrogen receptor alpha
T1 sequence (P03372 whole entry): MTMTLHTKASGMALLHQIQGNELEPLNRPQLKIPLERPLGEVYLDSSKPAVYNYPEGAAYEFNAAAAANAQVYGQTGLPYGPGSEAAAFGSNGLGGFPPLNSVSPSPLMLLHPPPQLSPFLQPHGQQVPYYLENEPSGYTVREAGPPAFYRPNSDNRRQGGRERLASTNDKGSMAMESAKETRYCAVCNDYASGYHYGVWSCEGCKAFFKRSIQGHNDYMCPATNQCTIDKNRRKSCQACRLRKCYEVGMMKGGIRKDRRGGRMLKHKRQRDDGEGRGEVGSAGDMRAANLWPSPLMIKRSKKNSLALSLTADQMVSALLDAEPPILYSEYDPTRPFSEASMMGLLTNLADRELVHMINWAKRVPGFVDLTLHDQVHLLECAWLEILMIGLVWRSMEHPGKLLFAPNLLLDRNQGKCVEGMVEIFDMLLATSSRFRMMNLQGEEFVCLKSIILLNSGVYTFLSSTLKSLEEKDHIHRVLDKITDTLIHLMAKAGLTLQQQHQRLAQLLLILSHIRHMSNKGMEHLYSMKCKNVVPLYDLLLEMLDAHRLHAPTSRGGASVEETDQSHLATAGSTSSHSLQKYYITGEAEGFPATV

[2] = target: Estrogen receptor beta (Homo sapiens, UniProt Q92731)
Description: In vitro inhibitory concentration against [3H]17-beta-estradiol binding to human estrogen receptor 2

[3] = target: T1, Estrogen receptor; test: In vitro antagonist effect on estrogen receptor alpha transcriptional activation in MCF-7 cells against 10 pM 17-beta-estradiol

Estrogen receptor beta, sequence (Q92731 whole entry): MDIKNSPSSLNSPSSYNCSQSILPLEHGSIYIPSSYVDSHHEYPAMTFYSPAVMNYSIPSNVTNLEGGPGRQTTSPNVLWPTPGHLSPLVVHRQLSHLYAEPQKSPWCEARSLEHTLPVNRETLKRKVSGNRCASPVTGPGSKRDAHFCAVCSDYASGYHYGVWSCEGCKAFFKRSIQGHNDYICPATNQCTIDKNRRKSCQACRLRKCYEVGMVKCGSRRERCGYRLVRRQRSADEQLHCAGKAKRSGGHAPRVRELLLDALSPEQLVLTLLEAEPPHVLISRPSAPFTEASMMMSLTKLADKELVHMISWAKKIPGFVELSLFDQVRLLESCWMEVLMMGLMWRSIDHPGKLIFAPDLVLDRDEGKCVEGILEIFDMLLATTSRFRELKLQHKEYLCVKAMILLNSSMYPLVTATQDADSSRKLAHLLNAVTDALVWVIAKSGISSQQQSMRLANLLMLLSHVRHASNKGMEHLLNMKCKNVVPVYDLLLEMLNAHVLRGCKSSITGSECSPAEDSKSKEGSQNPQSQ

## Cc1c(-c2ccc(O)cc2)n(CCCCCCN2CCCC2)c2ccc(O)cc12
[1]
  IC50: 25 nM
[2]
  IC50: 242 nM
[3]
  IC50: 69 nM

## Cc1c(-c2ccc(O)cc2)n(Cc2ccc(OCCN3CCCCC3)cc2)c2ccc(O)cc12 [PIPENDOXIFENE]
[2]
  IC50: 40 nM
